Source: BindingDB's records for doi:10.1016/j.bmcl.2010.12.114 (Ligand Pharmaceuticals, 2011)

Experiment: Inhibition of human CXCR3 by chemotaxis assay

C[C@H]1CN(c2ncc(C(=O)NCc3ccc(F)c(F)c3)cc2Cl)CCN1C1CCN(Cc2ccc(Cl)cc2)CC1 [(S)-5-chloro-6-(4-(1-(4-chlorobenzyl)piperidin-4-yl)-3-methylpiperazin-1-yl)-N-(3,4-difluorobenzyl)nicotinamide]
IC50: 23 nM
